The test system of this assay is CMV-Lac Z reporter in neonatal rat cardiomyocytes. Description: CMV-Lac Z reporter (specificity control). Format: cell-based. The conditions noted are these: inhibitor alone or together with phenylephrine. The procedure: FIGS. 3A-D. HDAC inhibitors block the activation of ANF reporter by phenylphrine without cytotoxicity. Neonatal rat cardiomyocytes were co-transfected with a total of 1 μg of the mouse 3 kb ANF promoter fragment and CMV-Lac Z plasmids. (FIG. 3A) The ANF promoter is minimally active in unstimulated cardiomyocytes. […] (FIG. 3B) Lac Z expression by the constitutive promoter CMV. Treatment with HDAC inhibitors augmented CMV activity with and without phenylephrine co-treatment. (FIGS. 3C and 3D) The graphs show the measurements of adenylate kinase activity remains constant in the medium after […] of culturing cardiomyocytes in the absence or presence of hypertrophic stimulants FBS, PE or ET-1.
Transcription assay. Twenty-four hours after plating, cells were transfected with total of 1 μg/ml for 5 hrs using Lipofectamine Plus reagent (Invitrogen, Carlsbad, Calif.). Transfected cells were incubated 24 hrs then treated for an additional 24 hrs. Cells were lysed and their lysates assayed with the Luciferase Assay System (Promega, Madison, Wis.) for luminescence using Lucysoft 2 luminometer (Rosys Anthos, New Castle, Del.).

Regarding `CC(/C=C/C(=O)NO)=C\[C@@H](C)C(=O)c1ccc(N(C)C)cc1` [TSA, Trichostatin A], the “transcriptional activity of CMV-Lac Z reporter” value is given as “increased the transcriptional activity of the CMV-Lac Z reporter”.

The record behind these values is patent US6706686B2, “Inhibition of histone deacetylase as a treatment for cardiac hypertrophy” (The Regents of the University of Colorado, priority 2001, dated 2004).
